# Laboratory results as given in patent publication US7618958B2, “Stereospecific anxiolytic and anticonvulsant agents with reduced muscle-relaxant, sedative-hypnotic and ataxic effects” (WISYS Technology Foundation, Inc., priority 2004, dated 2009).
# What was measured:
# α2β3γ2 GABAA receptors = molecular target: T1, α2β3γ2 GABAA receptors (Rattus norvegicus, UniProt P18508+P23576); assay: Two-electrode voltage clamp in Xenopus oocytes, α2β3γ2; format: cell-based; conditions: FIG. 1, Xenopus oocytes
# T1 construct: expressed in transfected cells; host or cells: Xenopus laevis oocytes injected with cRNA
# T1 sequence (P23576 29-451): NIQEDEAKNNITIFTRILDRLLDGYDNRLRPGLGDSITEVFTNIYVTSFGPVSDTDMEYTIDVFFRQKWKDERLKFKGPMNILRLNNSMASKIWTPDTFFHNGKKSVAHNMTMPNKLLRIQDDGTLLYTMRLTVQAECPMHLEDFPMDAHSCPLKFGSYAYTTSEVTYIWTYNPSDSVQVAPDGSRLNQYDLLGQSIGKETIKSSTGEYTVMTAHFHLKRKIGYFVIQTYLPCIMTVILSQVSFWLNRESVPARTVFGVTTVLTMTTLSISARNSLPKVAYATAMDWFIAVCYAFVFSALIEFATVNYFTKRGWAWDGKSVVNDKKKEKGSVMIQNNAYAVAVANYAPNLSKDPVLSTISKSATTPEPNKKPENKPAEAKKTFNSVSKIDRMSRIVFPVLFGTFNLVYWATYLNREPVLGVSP
# T1 sequence (P63079 26-473 partner): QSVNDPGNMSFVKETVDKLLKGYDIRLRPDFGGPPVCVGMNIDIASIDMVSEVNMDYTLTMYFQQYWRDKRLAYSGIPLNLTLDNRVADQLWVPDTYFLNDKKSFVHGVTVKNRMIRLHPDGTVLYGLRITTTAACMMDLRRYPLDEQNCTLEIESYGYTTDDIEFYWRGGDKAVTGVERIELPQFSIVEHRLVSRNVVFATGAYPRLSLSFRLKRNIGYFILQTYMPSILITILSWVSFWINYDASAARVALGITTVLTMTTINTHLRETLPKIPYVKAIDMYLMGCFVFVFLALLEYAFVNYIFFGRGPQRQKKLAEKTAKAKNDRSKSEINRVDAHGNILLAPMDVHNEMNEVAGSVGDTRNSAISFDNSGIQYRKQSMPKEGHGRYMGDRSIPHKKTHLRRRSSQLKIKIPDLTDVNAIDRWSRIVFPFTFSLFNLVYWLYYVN
# T1 sequence (P18508 39-466): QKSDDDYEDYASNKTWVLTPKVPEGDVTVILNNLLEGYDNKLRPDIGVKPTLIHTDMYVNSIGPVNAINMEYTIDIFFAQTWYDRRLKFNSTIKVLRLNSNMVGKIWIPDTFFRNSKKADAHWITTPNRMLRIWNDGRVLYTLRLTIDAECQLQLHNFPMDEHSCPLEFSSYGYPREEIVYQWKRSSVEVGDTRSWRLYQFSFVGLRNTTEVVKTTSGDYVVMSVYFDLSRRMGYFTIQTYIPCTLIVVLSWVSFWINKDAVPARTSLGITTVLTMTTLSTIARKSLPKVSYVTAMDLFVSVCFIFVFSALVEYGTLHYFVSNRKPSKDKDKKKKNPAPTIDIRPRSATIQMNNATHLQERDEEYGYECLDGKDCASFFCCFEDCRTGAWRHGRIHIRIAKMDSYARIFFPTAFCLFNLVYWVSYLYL
# Method: (§1) 1. Effects of SH-053-S—CH3 8 on GABA(A) receptors were tested by two-electrode voltage clamp experiments in cRNA injected Xenopus oocytes that functionally expressed several subtype combinations of GABAA receptors. […] This oocyte profile is indicative of an anxiolytic agent devoid of sedative, ataxic and anterograde amnestic side effects.
# (§2) The methods were based on those published previously. See Li, X., et al., (2003) J. Med. Chem. 46: 5567-5570.
# (§3) Cloning of GABAA receptor subunits α1, β3 and γ2 into pCDM8 expression vectors (Invitrogen, CA) has been described elsewhere ([…]). GABAA receptor subunit α4 was cloned in an analogous way. cDNAs for subunits α2, α3 and α5 were gifts from P. Malherbe and were subcloned into pCI-vector (Li, et al., 2003). cDNA for subunit α6 was a gift from P. Seeburg and was subcloned into the vector pGEM-3Z (Promega). After linearizing the cDNA vectors with appropriate restriction endonucleases, capped transcripts were produced using the mMessage mMachine T7 transcription kit (Ambion, Tex.). The capped transcripts were polyadenylated using yeast poly(A) polymerase (USB, OH) and were diluted and stored in diethylpyrocarbonate-treated water at −70° C. (Li, et al., 2003). […]
# α3β3γ2 GABAA receptors = molecular target: T2, α3β3γ2 GABAA receptors (Rattus norvegicus, UniProt P18508+P20236); assay: Two-electrode voltage clamp in Xenopus oocytes, α3β3γ2; format: cell-based; conditions: FIG. 1, Xenopus oocytes
# T2 construct: expressed in transfected cells; host or cells: Xenopus laevis oocytes injected with cRNA
# T2 sequence (P20236 29-493): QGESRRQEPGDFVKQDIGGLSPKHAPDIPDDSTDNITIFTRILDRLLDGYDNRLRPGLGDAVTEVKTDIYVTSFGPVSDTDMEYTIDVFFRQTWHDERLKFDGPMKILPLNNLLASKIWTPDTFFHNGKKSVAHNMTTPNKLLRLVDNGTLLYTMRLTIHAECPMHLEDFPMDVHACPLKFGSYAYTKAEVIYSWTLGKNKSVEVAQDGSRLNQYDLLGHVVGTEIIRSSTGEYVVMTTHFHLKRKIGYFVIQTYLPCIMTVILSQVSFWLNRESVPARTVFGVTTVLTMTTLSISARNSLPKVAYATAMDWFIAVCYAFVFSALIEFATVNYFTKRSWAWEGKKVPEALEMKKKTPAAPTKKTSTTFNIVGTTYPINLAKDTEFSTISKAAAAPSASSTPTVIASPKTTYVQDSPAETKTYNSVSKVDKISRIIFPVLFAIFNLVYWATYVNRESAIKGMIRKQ
# T2 sequence (P63079 26-473 partner): as the sequence (P63079 26-473 partner) above
# T2 sequence (P18508 39-466): as the sequence (P18508 39-466) above
# Method: as §1, §2, §3
compound,measurement,setting,value
"C#Cc1ccc2c(c1)C(c1ccccc1)=NC(C)c1c(C(=O)OCC)ncn1-2 (centres unmarked) [SH-053-S—CH3, 8-Ethynyl-4-methyl-6-phenyl-4H-2,5,10b-triaza-benzo[e]azulene-3-carboxylic acid ethyl ester]",efficacy at α2β3γ2 subtypes,α2β3γ2 GABAA receptors,agonist
same,efficacy at α3β3γ2 subtypes,α3β3γ2 GABAA receptors,agonist
